This is an account of results in patent US12678433B2, “Compounds for treatment of hemolysis-and inflammasome-associated diseases” (New York Blood Center, Inc., priority 2020, dated 2026).

The data set concerns purified naïve B cells from healthy donors. As to the method: Hemin and RBC lysate preparation. Hemin, dissolved in dimethyl sulfoxide (DMSO), stock concentration 10 mM, was diluted to 100 μM with serum-free RPMI 1640 culture medium just prior to addition to B cell cultures. For short-term experiments lasting less than 24 hr, a final concentration of 10 μM hemin was used whereas for longer-term culture up to 7 days, 2.5-5 μM final heme concentration was used. RBC lysates were freshly prepared (containing ~80 g/L hemoglobin) for same day use. Briefly, 4 ml whole blood from healthy donors was passed through Acrodisc WBC syringe filter (Pall Corporation) to remove white blood cells followed by two washes with Dulbecco's Phosphate Buffered Saline (D-PBS) (200×g, 10 min at room temperature with no brake) for removal of platelets. The RBC pellet was lysed with 3 times volume of distilled water for 10 min at 37° C. Cellular debris was pelleted by centrifugation at 4000×g for 10 min at 4° C. The RBC lysate was transferred to a new tube and 1/9 volume of 10×D-PBS added.
Cell isolation and culture. Peripheral blood mononuclear cells (PBMCs) were prepared by Ficoll (GE Healthcare) density gradient centrifugation from healthy donor leukopak products as well as from sickle peripheral blood apheresis waste bags. Human naïve and memory B cells were isolated from PBMCs using a human memory B Cell Isolation Kit (Miltenyi Biotec) by collecting CD27− B cells (naïve B cells) and CD27+ B cell (memory B cells) separately. […] RPMI 1640 culture medium was used for all cell culture experiments (supplemented with 10% FBS, 100-unit penicillin-streptomycin, […], 1 mM sodium pyruvate, all from Thermo Fisher Scientific). Purified B cells were stained with CFSE (Cat #: C34554, Thermo Fisher Scientific) and cultured in U-bottom 96 well plates (2.5×10^5/well/200 μl culture medium) in the presence of goat anti-human IgA+IgG+IgM (H+L) F(ab′)2 fragment (2.5 μg/ml, Jackson ImmunoResearch), CD154 (10 ng/ml, R&D Systems) and CpG (ODN 7909, 1 nM, Cat #: tlrl-2006-1) without IL-2 for analysis of only CD38+ plasmablast differentiation or with IL-2 (5 ng/ml, Cat #:1081-IL-020, R&D Systems) in experiments to detect CD27^hiBlimp-1+ plasma cells. In addition, heme and various inhibitors were added to the cultures at the start point and incubated for 7 days.
Cultured cells: stimulated B cells were transferred into U bottom 96 well plate and washed with 200 μl MACS buffer (D-PBS containing 0.5% BSA and 2 mM EDTA) at 300×g for 5 min at 4° C. After one wash, cells were stained for surface expression of CD19, CD38, CD27 using 25 μl staining buffer (anti-CD19, CD38, CD27 antibodies, diluted 200 fold with MACS buffer) for 30 min at 4° C. After one wash with 200 μl MACS buffer, cells were resuspended in 100 μl D-PBS and 50 μl Fixable Viability Dye eFluor™ 780 (1000 fold diluted with D-PBS, Thermo Fisher Scientific) was added for dead cell detection for 5 min at room temperature. Cells were washed one time with MACS buffer and 100 μl D-DPS was added just before flow cytometric analysis (LSRFortessa flow cytometer, BD Bioscience). For intracellular staining of IgG, Blimp-1 and HO-1, samples were first washed with 200 μl MACS buffer before addition of 150 μl Fixation/Permeabilization buffer (Thermo Fisher Scientific) for 45 min at 4° C. After fixation, samples were washed twice with 1× Permeabilization buffer (Thermo Fisher Scientific) and stained with 25 μl intracellular staining buffer (anti-human IgG, DOCK8, Blimp-1, HO-1 antibodies, diluted 200 fold with 1× Permeabilization buffer) for 45 min at 4° C., after which the cells were washed twice with Permeabilization buffer and 100p D-DPS was added prior to flow cytometric analysis.

The mark [1] stands for this setting: HD naïve B cells, 7 days, highest heme concentration tested (5 μM).

Where two headings read alike, the source gives them in different places.

For the compound `C=CC1=C(C)c2cc3[n-]c(cc4[n-]c(cc5nc(cc1n2)C(C)=C5C=C)c(C)c4CCC(=O)O)c(CCC(=O)O)c3C.[Fe+2]` [heme, iron(III) complex of protoporphyrin IX], under “2.5 μM heme”, the “effect on B cell proliferation” value is reported as “minor inhibition” and the “effect on differentiation of naïve B cells into plasmablasts” value is given as “robust inhibitory effect”. The “B cell class switch recombination (percent IgG+ B cells)” value (2.5 or 5 μM hemin) is reported as “not affected”. Under setting [1], the “inhibition of B cell proliferation” value is reported as 6.8%±1.3% and the “inhibition of plasmablast cell differentiation” value is given as 52.7%±8.0%. The “effect on B cell proliferation” value (heme 2.5 μM, SnPPIX 2.5 μM, alone or together) is on record as “little to no effect”. Besides, the “CD27hiBlimp-1+ plasma cell differentiation” value (heme 2.5 or 5 μM, 7 days) was “inhibition”. Where the note is “highest dose of heme used”, the “percentage of viable B cells” value is listed as “high”.
